We go through 1 molecule from US20090076111A1, “Methods for improving glycemic control in humans” (priority 2004, published 2009).

Data set [1] in a line: Preclinical oral bioavailability and urinary excretion of 4-OH-Ile in PROMILIN
The format is in vivo, rat. The note with it: rats. The protocol:
In addition to the human clinical portion of the study, preclinical trials were conducted in rats to assess if the 4-OH-Ile in PROMILIN™ is orally bioavailable to rats and if it is excreted in their urine.

For a further data set, the system named is pancreatic beta cell. The note with it: major isomer (2S,3R,4S), micromolar concentrations, glucose dependent; cited from earlier work.

The structures appear in SMILES notation.

In the case of `CC(O)C(C)C(N)C(=O)O` (racemic) [4-OH-Ile, 4-hydroxyisoleucine], the oral bioavailability entry in data set [1] (4-OH-Ile in PROMILIN, oral) is “bioavailable”. In addition, in data set [1] (both diastereomers, after oral gavage of PROMILIN), the “time to absorption from the gut into the circulation” value is at most 15 min. Further, the urinary excretion result in data set [1] (both isomers) is reported as “excreted in the urine”. Besides, the “appearance of 4-OH-Ile in the circulation” value in data set [1] (coadministration of glucose and PROMILIN) was “slowed the appearance”. Also, the glucose-induced insulin secretion entry in the data set with pancreatic beta cell was “stimulate glucose-induced insulin secretion”.
